Reference: PubChem BioAssay AID2060616 (Molecular Pharmacology Branch, DTP, NCI, 2025)
Where “and” joins values, the source holds several entries; their conditions need not be identical. Equal entries are not always repeated. Values belong to the molecule of their own block, whether it stands above or below them.

Tested on: 377384-186-R-J1-PDC complex spheroid viability
Experiment: Anticancer human tumor 377384-186-R-J1-PDC patient-derived pancreatic carcinoma cell line growth inhibition [CLK]
Conditions: for viability, T/C: stronger effect = lower value; for IC50: curve of compound
Method in brief: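 Patient-derived tumor cells grown as complex spheroids with HUVEC endothelial cells and mesenchymal stem cells, treated with drug combinations. Concentrations descend in half-log steps from near clinical Cmax, or from 10 microM if Cmax unknown.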
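Note: spheroids exposed to agents for 7 days before reading.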
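Throughout, for viability, T/C: luminescence signal used as a stand-in for viable cells.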

IC50: 2660 nM and 2050 nM
SMILES: CC1COCCN1c1cc(C2(S(C)(=N)=O)CC2)nc(-c2ccnc3[nH]ccc23)n1 (centres undefined)
viability, T/C (compound 0.0316 µM): 85.7% and 90.6%
viability, T/C (compound 0.1 µM): 108% and 109%
viability, T/C (compound 0.316 µM): 83.9% and 91.1%
viability, T/C (compound 1 µM): 82.9% and 74.7%
viability, T/C (compound 3.16 µM): 44% and 35.3%
viability, T/C (compound 10 µM): 17.6% and 14.9%

IC50: < 31.6 nM
SMILES: COc1cccc2c1C(=O)c1c(O)c3c(c(O)c1C2=O)CC(O)(C(=O)CO)CC3OC1CC(N)C(O)C(C)O1 (centres undefined)
viability, T/C (compound 0.0316 µM): 12.5% and 9.59%
viability, T/C (compound 0.1 µM): 7.59% and 5.12%
viability, T/C (compound 0.316 µM): 1.88% and 1.98%
viability, T/C (compound 1 µM): 0.76% and 0.47%
viability, T/C (compound 3.16 µM): 3.8% and 3.34%
viability, T/C (compound 10 µM): 8.38% and 5.34%
